“Also recorded” adds a separate entry of the source. Where two headings read alike, the source gives them in different places.
Tests used:
[1] = molecular target: T1, hNpr1 (Homo sapiens, UniProt P16066); test: qHTS GloSensor cGMP assay, hNppa-stimulated HEK-hNpr1-cGMP-sensor cells (1536-well); format: cell-based; conditions: for Inhibition of hNppa-induced hNpr1 activity (in words): HEK-hNpr1-cGMP-sensor cells; for Imax, HEK-hNpr1-cGMP-sensor cells: −100% = 38.3 μM A-71915
T1 sequence (P16066 33-1061): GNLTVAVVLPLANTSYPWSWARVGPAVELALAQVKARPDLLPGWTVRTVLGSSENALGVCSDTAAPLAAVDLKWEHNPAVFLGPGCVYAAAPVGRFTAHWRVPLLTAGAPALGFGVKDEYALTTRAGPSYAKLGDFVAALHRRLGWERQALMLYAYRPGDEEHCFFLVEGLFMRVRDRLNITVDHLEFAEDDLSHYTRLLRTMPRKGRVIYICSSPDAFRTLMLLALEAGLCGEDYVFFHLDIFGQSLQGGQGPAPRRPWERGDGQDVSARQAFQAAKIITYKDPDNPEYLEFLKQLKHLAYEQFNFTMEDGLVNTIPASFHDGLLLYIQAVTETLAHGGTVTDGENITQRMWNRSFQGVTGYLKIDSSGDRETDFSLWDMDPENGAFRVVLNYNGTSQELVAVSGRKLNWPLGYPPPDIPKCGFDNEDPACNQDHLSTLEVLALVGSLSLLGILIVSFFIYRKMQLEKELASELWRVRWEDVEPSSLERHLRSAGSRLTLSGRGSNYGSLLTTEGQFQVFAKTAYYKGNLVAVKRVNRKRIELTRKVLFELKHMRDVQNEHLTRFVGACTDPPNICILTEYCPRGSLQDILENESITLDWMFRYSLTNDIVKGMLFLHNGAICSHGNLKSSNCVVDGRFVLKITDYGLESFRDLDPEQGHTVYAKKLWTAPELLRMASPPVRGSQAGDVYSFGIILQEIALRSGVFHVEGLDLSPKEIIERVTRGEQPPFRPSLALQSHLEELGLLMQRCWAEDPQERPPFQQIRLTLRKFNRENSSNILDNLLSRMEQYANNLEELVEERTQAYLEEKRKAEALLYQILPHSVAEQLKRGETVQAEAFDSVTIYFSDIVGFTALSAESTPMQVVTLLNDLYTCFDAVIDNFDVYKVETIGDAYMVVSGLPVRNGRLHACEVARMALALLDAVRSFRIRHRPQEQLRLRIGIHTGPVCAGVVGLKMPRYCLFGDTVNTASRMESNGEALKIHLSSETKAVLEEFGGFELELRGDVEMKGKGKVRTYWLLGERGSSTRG
Source text: In order to identify small molecular compounds that inhibit the Npr1 receptor a high-throughput assay to probe inhibition of the receptor guanylate cyclase Npr1 was developed. The assay was designed taking advantage of Promega's GloSensor™ technology (Promega, Madison, Wis.). This technology involves the expression of a cyclic guanosine monophosphate (cGMP) biosensor, comprised of a firefly luciferase variant that was coupled to the cGMP binding domain of human phosphodiesterase 5A, and loading of cells with a cell-permeable luciferase substrate to monitor cGMP production by Npr1 in real time in live cells. Briefly, human embryonic kidney 293 cells stably expressing the human Npr1 and the pGloSensor™-40F cGMP vector (“pGloSensor™-40F”) were generated. Stimulating these cells with the Npr1 agonists human NppA or NppB, luciferase-induced light production could be detected in a dose-dependent manner. HEK293 cells stably expressing human Npr2 and pGS-40F and cells only expressing pGS-40F were also generated to conduct secondary counter screens. In these cells, NppC or sodium nitroprusside were used to stimulate Npr2 or soluble guanylate cyclase which is endogenously expressed in HEK293 cells, respectively. The Npr2-NppC counter screen was employed to search for agents that minimally effected this agonist-receptor interaction. The Npr2-NppC system was used because the side effects of most drugs occur on related receptors. Npr1 and Npr2 are the most related receptors in sequence and function and there are no additional active receptor subtypes in this family of receptors. The procedure is described in detail below.
Measurement of intracellular cGMP production in HEK-hNpr1-cGMP-sensor cells was scaled to 4 μl volumes in 1536-well format and primary screening was performed in an automated manner in 7- to 11-point qHTS. Cells (1.5×10^3) were plated in assay medium in white, solid bottom TC treated 1536-well plates (Greiner Bio-One) with a Multidrop™ Combi Reagent Dispenser (Thermo Fisher Scientific). Cells were incubated at 37° C., 5% CO2 and 95% humidity for 16 hours and 1 μl of GloSensor™ reagent at a final assay concentration of 2% or assay medium as background control was added to respective wells with a BioRAPTR Flying Reagent Dispenser™ (Beckman Coulter, Schaumburg, Ill.). Cells were incubated at room temperature for 2 hours, protected from light. Compound (23 nl) was transferred by a pintool (Kalypsys, San Diego, Calif.) in the concentration range of […] to 46.1 μM along with DMSO and a titration of A-71915 from top concentration 38.3 μM to 1.7 nM in columns 1-4 of each plate as vehicle and positive controls, respectively. Cells were incubated with compound for 30 minutes at room temperature, protected from light. Pre-agonist luminescence for each plate was read on a ViewLux™ plate reader (PerkinElmer). Human NppA (1 μl) at a final assay concentration of 0.1 nM, or C02-independent media were added to respective wells with a BioRAPTR Flying Reagent Dispenser™ (Beckman Coulter). Plates were incubated for 20 minutes at room temperature, protected from light, and luminescence was read on a ViewLux™ plate reader.
Pre-agonist and post-agonist data were normalized by plate to corresponding intra-plate controls as described in Inglese et al., PNAS USA, 103: 11473-11478 (2006) (which is incorporated herein by reference, in its entirety). Assay statistics including S:N and Z′ were calculated using the same respective controls. Pre-agonist data were normalized to the average signal of DMSO-treated wells with 2% GoSensor™ reagent as 0% and the average signal of DMSO-treated wells with assay medium as −100% activity. Post-agonist data were normalized to the average signal of DMSO-treated wells with 2% GoSensor™ reagent and 0.1 nM hNppA as 0% and the average signal of wells treated with 38.3 μM A-71915 with 2% GloSensor™ reagent and 0.1 nM hNppA as −100% activity. […]

[2] = molecular target: T1, hNpr1; test: Cell-free hNpr1 membrane cyclase assay (cGMP ELISA); format: biochemical
[3] = Table 1, cell-based GloSensor assay of hNpr1 inhibition, read-out: IC50 GloSensor™ assay
[4] = qHTS follow-up, hNppa-stimulated, four-parameter fit, read-out: IC50, HEK-hNpr1-cGMP-sensor cells
[5] = qHTS follow-up, hNppa-stimulated
[6] = Table 1, biochemical assay, read-out: IC50 biochem assay
[7] = calculated with Cheng-Prusoff equation from Table 4, read-out: Ki hNpr1 cyclase assay [μM] (mean ± SEM)
[8] = membranes of HEK-hNpr1-cGMP-sensor cells, hNppa-stimulated
[9] = membranes of HEK-hNpr1-cGMP-sensor cells, hNppa-stimulated, read-out: IC50 [μM] (mean ± SEM), membrane cyclase assay

| SMILES | Inhibition of hNppa-induced hNpr1 activity (in words) [1] | IC50 [1, 3] [nM] | IC50 [1, 4] [nM] | Imax, HEK-hNpr1-cGMP-sensor cells [1, 5] [%] | IC50 [2, 6] [µM] | Ki [2, 7] [µM] | Imax [%] (mean ± SEM), membrane cyclase assay [2, 8] | IC50 [2, 9] [µM] | Ki [2] [µM] | IC50 ([2]; IC50 [μM] (mean ± SEM), membrane cyclase assay, membranes of HEK-hNpr1-cGMP-sensor cells, hNppa-stimulated) [µM] | IC50 ([2]; IC50 biochem assay (M), Table 1, biochemical assay) [µM] |
| --- | --- | --- | --- | --- | --- | --- | --- | --- | --- | --- | --- |
| Cc1nn2c(c1-c1ccccc1OCc1ccccc1)N(C(=O)Cc1ccc3c(c1)OCO3)CCC2 [JS-8, 2-(benzo[d][1,3]dioxol-5-yl)-1-(3-(2-(benzyloxy)phenyl)-2-methyl-6,7-dihydropyrazolo[1,5-a]pyrimidin-4(5H)-yl)ethan-1-one] | inhibit hNpr1 activity; also recorded: inhibits hNppa-induced hNpr1 activity; also recorded: antagonizes natriuretic peptide-induced activation | 8910 | 13000 ± 1200 | −122 ± 9 | 0.336 | 0.05 ± 0.064 | −98.0 ± 2.0 | 0.3 ± 0.4 | – | – | – |
| Cc1noc(C)c1-c1cc(-c2ccccc2Oc2ccccc2)cn2cncc12 [JS-5, 3,5-dimethyl-4-(6-(2-phenoxyphenyl)imidazo[1,5-a]pyridin-8-yl)isoxazole] | inhibit hNpr1 activity; also recorded: inhibits hNppa-induced hNpr1 activity; also recorded: antagonizes natriuretic peptide-induced activation | 28200 | 32000 ± 13000 | −127 ± 12 | 0.141 | 0.02 ± 0.02 | −99.8 ± 0.1 | 0.1 ± 0.1 | – | – | – |
| Cc1nn2c(c1-c1ccccc1OCc1ccccc1)N(C(=O)Cc1ccccn1)CCC2 [JS-9, 1-(3-(2-(benzyloxy)phenyl)-2-methyl-6,7-dihydropyrazolo[1,5-a]pyrimidin-4(5H)-yl)-2-(pyridin-2-yl)ethan-1-one] | – | 8910 | 35000 ± 15000 | −106 ± 18 | 2.17 | 0.32 ± 0.262 | −95.3 ± 4.5 | 2.2 ± 1.8 | – | – | – |
| CN(Cc1ccccc1)C(=O)c1cn2ccnc(-c3ccccc3)c2n1 [JS-14, N-benzyl-N-methyl-8-phenylimidazo[1,2-a]pyrazine-2-carboxamide] | – | 6310 | 117000 ± 75000 | −286 ± 966 | 18.6 | 1.87 ± 0.723 | −99.0 ± 0.0 | 12.7 ± 4.9 | – | – | – |
| COc1ccc(C2(C(=O)N3CCC4(CC3)c3nccn3-c3ccccc3CN4C)CC2)cc1 [JS-12, (1-(4-methoxyphenyl)cyclopropyl)(5-methyl-5,6-dihydrospiro[benzo[f]imidazo[1,2-a][1,4]diazepine-4,4′-piperidin]-1′-yl)methanone] | – | 8910 | 16000 ± 1300 | −116 ± 11 | – | – | −99.0 ± 1.0 | – | 0.1 ± 0.015 | 0.7 ± 0.1 | 0.614 |
| O=C(NCc1cccnc1)c1cnc2[nH]nc(-c3ccccc3)c2n1 [JS-7, 3-phenyl-N-(pyridin-3-ylmethyl)-1H-pyrazolo[3,4-b]pyrazine-5-carboxamide] | – | 22400 | 85000 ± 22000 | −216 ± 97 | 0.122 | 0.02 ± 0.044 | −98.4 ± 1.5 | 0.1 ± 0.3 | – | – | – |
| Cc1nn2c(c1-c1ccccc1Oc1ccccc1)N(C(=O)Cc1ccc3c(c1)OCO3)CCC2 [JS-10, 2-(benzo[d][1,3]dioxol-5-yl)-1-(2-methyl-3-(2-phenoxyphenyl)-6,7-dihydropyrazolo[1,5-a]pyrimidin-4(5H)-yl)ethan-1-one] | – | 7940 | 17000 ± 1300 | −122 ± 12 | 0.744 | 0.11 ± 0.09 | −95.2 ± 3.3 | 0.7 ± 0.6 | – | – | – |
| COc1ccccc1-c1n[nH]c2ncc(C(=O)NCc3cccnc3)nc12 [JS-6, 3-(2-methoxyphenyl)-N-(pyridin-3-ylmethyl)-1H-pyrazolo[3,4-b]pyrazine-5-carboxamide] | – | 11200 | 24000 ± 1200 | −15 ± 3 | 0.766 | 0.11 ± 0.275 | −99.4 ± 0.5 | 0.8 ± 1.9 | – | – | – |
| Cl.O=C1Nc2ccccc2CN(CC2CCCCC2)C12CCNCC2 [JS-1, 4-(cyclohexylmethyl)-4,5-dihydrospiro[benzo[e][1,4]diazepine-3,4′-piperidin]-2(1H)-one hydrochloride] | – | 7310 | 26000 ± 1500 | −119 ± 20 | – | – | – | – | – | – | – |
| Cc1cc(CNC(=O)c2ccc3c(c2)n(CC2CC2)c(=O)n3C2CCCCC2)on1 [JS-11, 1-cyclohexyl-3-(cyclopropylmethyl)-N-((3-methylisoxazol-5-yl)methyl)-2-oxo-2,3-dihydro-1H-benzo[d]imidazole-5-carboxamide] | inhibit hNpr1 activity; also recorded: inhibits hNppa-induced hNpr1 activity; also recorded: antagonizes natriuretic peptide-induced activation | 5620 | 21000 ± 1300 | −140 ± 13 | 1.14 | 0.21 ± 0.008 | −99.7 ± 0.2 | 1.4 ± 0.1 | – | – | – |
| O=C(Cc1ccc(Cl)cc1)N1Cc2ccccc2CC2(CCCN2CC2CCNC2)C1 (stereo not drawn) [JS-2, 2-(4-chlorophenyl)-1-(1′-(pyrrolidin-3-ylmethyl)-1,5-dihydrospiro[benzo[c]azepine-4,2′-pyrrolidin]-2(3H)-yl)ethan-1-one] | – | 13000 | 25000 ± 1300 | −102 ± 9 | – | – | – | – | – | – | – |

Reference: patent US11324725B2, “Compositions and methods for the inhibition of pruritus” (The United States of America, as represented by the …, priority 2017, dated 2022)
